Test results taken from patent US6737383B1, “Herbicidal oxadiazolidines” (priority 1999, dated 2004).

Assays:
rape = assay: Test B pre/postemergence rape; assay type: in vivo, Brassica napus
How it was run: (§1)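 Response is a visual 0-to-10 score relative to untreated plants, where 0 means no effect and 10 means complete control, taken twelve to sixteen days after application. Treatments went onto soil at planting and onto foliage of 1- to 4-leaf plants, using a surfactant-containing non-phytotoxic solvent.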

corn = assay: Test B pre/postemergence corn; assay type: in vivo, Zea mays
How it was run: as §1

rice = assay: Test B flood test rice; assay type: in vivo, Oryza sativa
How it was run: (§2)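 Each value is a visual injury score relative to controls, with 10 meaning complete control and 0 no effect. Evaluation took place twelve to sixteen days after the 2-leaf-stage plants were treated and kept in the greenhouse.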

crabgrass = assay: Test B pre/postemergence crabgrass; assay type: in vivo, Digitaria sanguinalis
How it was run: as §1

surinam grass = assay: Test B pre/postemergence surinam grass; assay type: in vivo, Brachiaria decumbens
How it was run: as §1

sugar beet = assay: Test B pre/postemergence sugar beet; assay type: in vivo, Beta vulgaris; settings: for Plant response rating, Sugarbeets: Rate 250 g/ha
How it was run: as §1

cocklebur = assay: Test B pre/postemergence cocklebur; assay type: in vivo, Xanthium strumarium
How it was run: as §1

wheat = assay: Test B pre/postemergence wheat; assay type: in vivo, Triticum aestivum; settings: for Plant response rating, Wheat: Rate 250 g/ha
How it was run: as §1

morningglory = assay: Test B pre/postemergence morningglory; assay type: in vivo, Ipomoea hederacea
How it was run: as §1

duck salad = assay: Test B flood test duck salad; assay type: in vivo, Heteranthera limosa
How it was run: as §2

purple nutsedge = assay: Test B pre/postemergence purple nutsedge; assay type: in vivo, Cyperus rotundus
How it was run: as §1

wild oat = assay: Test B pre/postemergence wild oat; assay type: in vivo, Avena fatua; settings: for Plant response rating, Wild oats: Rate 250 g/ha
How it was run: as §1

smallflower flatsedge = assay: Test B flood test smallflower flatsedge; assay type: in vivo, Cyperus difformis
How it was run: as §2

giant foxtail = assay: Test B pre/postemergence giant foxtail; assay type: in vivo, Setaria faberii
How it was run: as §1

bamyardgrass = assay: Test B flood test barnyardgrass; assay type: in vivo, Echinochloa crus-galli
How it was run: as §2

pigweed = assay: Test B pre/postemergence pigweed; assay type: in vivo, Amaranthus retroflexus
How it was run: as §1

[1] = Postemergence, Rate 125 g/ha, scale of 0 to 10 where 0 is no effect and 10 is complete control
[2] = Postemergence, Rate 250 g/ha, scale 0 to 10, 0 no effect, 10 complete control
[3] = Preemergence, Rate 62 g/ha, scale 0 to 10 (0 no effect, 10 complete control)
[4] = Preemergence, Rate 125 g/ha, scale 0 to 10 (0 no effect, 10 complete control)
[5] = Preemergence, Rate 250 g/ha, scale of 0 to 10 where 0 is no effect and 10 is complete control
[6] = Preemergence, Rate 500 g/ha, scale 0 to 10 (0 no effect, 10 complete control)
[7] = Rate 62 g/ha, Postemergence, scale of 0 to 10 where 0 is no effect and 10 is complete control
[8] = Rate 500 g/ha, Postemergence, scale 0 to 10, 0 no effect, 10 complete control
[9] = Postemergence (flood test species), Rate 125 g/ha, scale of 0 to 10 where 0 is no effect and 10 is complete control
[10] = Rate 62 g/ha, Postemergence section, flood test species, scale of 0 to 10 where 0 is no effect and 10 is complete control
[11] = Rate 250 g/ha, Postemergence (flood test), scale 0 to 10, 0 is no effect, 10 is complete control
[12] = Rate 500 g/ha, listed under Postemergence (flood test species), scale 0 to 10, 0 no effect, 10 complete control
[13] = Postemergence, Rate 62 g/ha, scale 0 to 10, 0 is no effect, 10 is complete control
[14] = Preemergence, Rate 125 g/ha, 0 is no effect, 10 is complete control
[15] = Preemergence, scale of 0 to 10 where 0 is no effect and 10 is complete control
[16] = Postemergence, scale 0 to 10, 0 is no effect, 10 is complete control
[17] = flood test, listed under Postemergence, Rate 250 g/ha, scale 0 to 10, 0 no effect, 10 complete control

With `CC(C)N(C(=O)n1oc(=O)n(C2CCCCC2)c1=O)c1ccccc1` [Compound 112] the “Rape plant response rating” value (rape; [1]) was 2, the “Rape plant response rating” value (rape; [2]) was 3 and the “Rape plant response rating” value (rape; [3]) was 0. For the same compound, the “Plant response rating, Rape” value (rape; [4]) was 0, the “Plant response rating, Rape” value (rape; [5]) was 0 and the “Rape plant response rating” value (rape; [6]) was 5. The “Rape plant response rating” value (rape; [7]) was 2, the “Rape plant response rating” value (rape; [8]) was 4 and the “Corn plant response rating” value (corn; [1]) was 0. For the same compound, the “Corn plant response rating” value (corn; [2]) was 0, the “Corn plant response rating” value (corn; [3]) was 0 and the “Plant response rating, Corn” value (corn; [4]) was 0. The “Plant response rating, Corn” value (corn; [5]) was 0, the “Corn plant response rating” value (corn; [6]) was 2 and the “Corn plant response rating” value (corn; [7]) was 0. The “Corn plant response rating” value (corn; [8]) was 0, the “Rice plant response rating” value (rice; [9]) was 0 and the “Rice plant response rating” value (rice; [10]) was 0. The “Plant response rating, Rice” value (rice; [11]) was 0, the “Rice plant response rating” value (rice; [12]) was 0 and the “Crabgrass plant response rating” value (crabgrass; [1]) was 4. The “Crabgrass plant response rating” value (crabgrass; [2]) was 4, the “Crabgrass plant response rating” value (crabgrass; [3]) was 5 and the “Plant response rating, Crabgrass” value (crabgrass; [4]) was 6. For the same compound, the “Plant response rating, Crabgrass” value (crabgrass; [5]) was 10, the “Crabgrass plant response rating” value (crabgrass; [6]) was 10 and the “Crabgrass plant response rating” value (crabgrass; [7]) was 0. For the same compound, the “Crabgrass plant response rating” value (crabgrass; [8]) was 9, the “B. signalgrass plant response rating” value (surinam grass; [13]) was 0 and the “B. signalgrass plant response rating” value (surinam grass; [2]) was 0. The “B. signalgrass plant response rating” value (surinam grass; [3]) was 0, the “Plant response rating, B. signalgrass” value (surinam grass; [4]) was 0 and the “Plant response rating, B. signalgrass” value (surinam grass; [5]) was 3. For the same compound, the “B. signalgrass plant response rating” value (surinam grass; [6]) was 5, the “B. signalgrass plant response rating” value (surinam grass; Rate 125 g/ha, Postemergence, scale 0 to 10, 0 no effect, 10 complete control) was 0 and the “B. signalgrass plant response rating” value (surinam grass; Rate 500 g/ha, Postemergence, scale of 0 to 10 where 0 is no effect and 10 is complete control) was 4. The “Sugarbeets plant response rating” value (sugar beet; [1]) was 2, the “Sugarbeets plant response rating” value (sugar beet; [3]) was 0 and the “Sugarbeets plant response rating (0 to 10 scale)” value (sugar beet; [14]) was 0. For the same compound, the “Plant response rating, Sugarbeets” value (sugar beet; [15]) was 0, the “Sugarbeets plant response rating” value (sugar beet; [6]) was 0 and the “Sugarbeets plant response rating” value (sugar beet; [7]) was 2. For the same compound, the “Plant response rating, Sugarbeets” value (sugar beet; [16]) was 3, the “Sugarbeets plant response rating” value (sugar beet; [8]) was 3 and the “Cocklebur plant response rating” value (cocklebur; [1]) was 1. The “Cocklebur plant response rating” value (cocklebur; [2]) was 2, the “Cocklebur plant response rating” value (cocklebur; [3]) was 0 and the “Plant response rating, Cocklebur” value (cocklebur; [4]) was 0. For the same compound, the “Plant response rating, Cocklebur” value (cocklebur; [5]) was 0, the “Cocklebur plant response rating” value (cocklebur; [6]) was 0 and the “Cocklebur plant response rating” value (cocklebur; [7]) was 0. For the same compound, the “Cocklebur plant response rating” value (cocklebur; [8]) was 2, the “Wheat plant response rating” value (wheat; [1]) was 0 and the “Wheat plant response rating” value (wheat; [3]) was 0. For the same compound, the “Wheat plant response rating (0 to 10 scale)” value (wheat; [14]) was 0, the “Plant response rating, Wheat” value (wheat; [15]) was 0 and the “Wheat plant response rating” value (wheat; [6]) was 0. The “Wheat plant response rating” value (wheat; [7]) was 0, the “Plant response rating, Wheat” value (wheat; [16]) was 0 and the “Wheat plant response rating” value (wheat; [8]) was 0. The “Morningglory plant response rating” value (morningglory; [1]) was 10, the “Morningglory plant response rating” value (morningglory; [2]) was 10 and the “Morningglory plant response rating” value (morningglory; [3]) was 0. For the same compound, the “Plant response rating, Morningglory” value (morningglory; [4]) was 2, the “Plant response rating, Morningglory” value (morningglory; [5]) was 2 and the “Morningglory plant response rating” value (morningglory; [6]) was 2. For the same compound, the “Morningglory plant response rating” value (morningglory; [7]) was 8, the “Morningglory plant response rating” value (morningglory; [8]) was 10 and the “Ducksalad plant response rating” value (duck salad; [9]) was 0. For the same compound, the “Ducksalad plant response rating” value (duck salad; [10]) was 0, the “Ducksalad plant response rating” value (duck salad; [12]) was 0 and the “Ducksalad plant response rating” value (duck salad; [17]) was 0. For the same compound, the “Nutsedge plant response rating” value (purple nutsedge; [1]) was 0, the “Nutsedge plant response rating” value (purple nutsedge; [2]) was 0 and the “Nutsedge plant response rating” value (purple nutsedge; [3]) was 0. The “Plant response rating, Nutsedge” value (purple nutsedge; [4]) was 0, the “Plant response rating, Nutsedge” value (purple nutsedge; [5]) was 0 and the “Nutsedge plant response rating” value (purple nutsedge; [6]) was 0. The “Nutsedge plant response rating” value (purple nutsedge; [7]) was 0, the “Nutsedge plant response rating” value (purple nutsedge; [8]) was 0 and the “Wild oats plant response rating” value (wild oat; [1]) was 0. The “Wild oats plant response rating” value (wild oat; [3]) was 0, the “Wild oats plant response rating (0 to 10 scale)” value (wild oat; [14]) was 0 and the “Plant response rating, Wild oats” value (wild oat; [15]) was 2. For the same compound, the “Wild oats plant response rating” value (wild oat; [6]) was 6, the “Wild oats plant response rating” value (wild oat; [7]) was 0 and the “Plant response rating, Wild oats” value (wild oat; [16]) was 0. For the same compound, the “Wild oats plant response rating” value (wild oat; [8]) was 1, the “S. Flatsedge plant response rating” value (smallflower flatsedge; [9]) was 0 and the “S. Flatsedge plant response rating” value (smallflower flatsedge; [10]) was 0. The “Plant response rating, S. Flatsedge” value (smallflower flatsedge; [11]) was 0, the “S. Flatsedge plant response rating” value (smallflower flatsedge; [12]) was 0 and the “Giant foxtail plant response rating” value (giant foxtail; [1]) was 7. The “Giant foxtail plant response rating” value (giant foxtail; [2]) was 7, the “Giant foxtail plant response rating” value (giant foxtail; [3]) was 8 and the “Plant response rating, Giant foxtail” value (giant foxtail; [4]) was 10. For the same compound, the “Plant response rating, Giant foxtail” value (giant foxtail; [5]) was 10, the “Giant foxtail plant response rating” value (giant foxtail; [6]) was 10 and the “Giant foxtail plant response rating” value (giant foxtail; [7]) was 2. The “Giant foxtail plant response rating” value (giant foxtail; [8]) was 8, the “Barnyardgrass plant response rating” value (bamyardgrass; [13]) was 0 and the “Barnyardgrass plant response rating” value (bamyardgrass; Rate 125 g/ha, Postemergence section (flood test species), scale 0 to 10, 0 no effect, 10 complete control) was 0. For the same compound, the “Barnyardgrass plant response rating” value (bamyardgrass; [12]) was 0, the “Barnyardgrass plant response rating” value (bamyardgrass; [17]) was 0 and the “Redroot pigweed plant response rating” value (pigweed; [1]) was 3. The “Redroot pigweed plant response rating” value (pigweed; [3]) was 0, the “Plant response rating, Redroot pigweed” value (pigweed; [4]) was 2 and the “Plant response rating, Redroot pigweed” value (pigweed; [5]) was 7. The “Redroot pigweed plant response rating” value (pigweed; [6]) was 9, the “Redroot pigweed plant response rating” value (pigweed; [7]) was 2 and the “Plant response rating, Redroot pigweed” value (pigweed; Rate 250 g/ha, Postemergence, scale 0 to 10, 0 is no effect, 10 is complete control) was 5. The “Redroot pigweed plant response rating” value (pigweed; [8]) was 5.
